Experimental data as given in EP0373195B1, “COMPOSITION FOR INCREASING MELANIN CONTENT OF MELANOCYTES IN-VIVO AND IN-VITRO AND METHODS FOR THE IN-VITRO USE THEREOF” (TRUSTEES OF BOSTON UNIVERSITY, priority 1988, dated 1989).

Columns and labels:
human melanocytes [1] = assay: Melanocyte bioassay: melanin content of cultured human melanocytes; type: cell-based; settings: for melanization / melanin content per human melanocyte (Fig. 3): DAG added after pretreatment with 100 nM TPA for 24 hours, then 6 days
Experimental: Melanocytes were seeded at 2 x 10^4 cells per 35 mm dish and combined with KPGM supplemented with 2% FBS and 100 ug/ml of BHE, now designated as complete melanocyte medium. After 24 hours incubation at 37 C, the grown melanocyte cultures, in duplicate or triplicate, received one of the following: free complete melanocyte medium; or supplemented whole KDCM. Each melanocyte culture was then incubated for 6-7 days at 37 C. Subsequently, each melanocyte culture was harvested and the cell number per dish empirically determined. Each melanocyte culture was washed with a 0.4 mM EDTA in PBS; treated with 1 ml of a mixture containing 0.13% trypsin and 0.2 mM EDTA; then incubated approximately 10 minutes at 37 C; followed by addition of 1 ml of PBS. Subsequently, a 0.5 ml aliquot of each resulting suspension was diluted to 10 ml total volume using isotonic saline and processed using a particle counter (Model ZM, Colter Science). To determine melanin content, the remaining suspension was centrifuged for 5 minutes in a microcentrifuge; the supernatant discarded; and the resulting cell pellet dissolved in 0.1 ml of a 1 M NaOH which was subsequently diluted with 0.4 ml of water. Melanin concentration was calculated by determination of optical density at 475 nanometers; and values extrapolated by comparison with a standard curve of determinations for synthetic melanin, a measurement of melanogenesis which correlates extremely well with 14C-DOPA incorporation and with tyrosinase activity [[…] and […]. Cell. Physiol. 133:88-94 (1987)]. Melanin values were expressed as total melanin per culture; or as melanin content per cell; or as percent of untreated controls. […] Neonatal foreskins obtained within two hours of elective circumcision were the source of human melanocytes. The epidermis was separated from the dermis after overnight incubation in 0.25% trypsin. Melanocytes were established in primary culture according to the procedure of […] et al. [J. Invest. Dermatol. 83:370-376 (1984)]. The preferred DAG was combined with human melanocytes in complete melanocyte medium and incubated together for a period of 6 days at 37°C. […] At an optimal concentration of 100 »M, this DAG produced an average of a 4 fold increase in cellular melanin content per cell over the untreated control. […] Initially, the human melanocytes were obtained and grown as previously described. Subsequently, the cultured human melanocytes were combined with 100 nM of TPA in melanocyte medium and incubated at 37°C for 24 hours. The DAG was then added and the culture incubated again for 6 days. The melanin content of the cells was then evaluated in accordance with the procedure as previously described herein. The results are graphically illustrated by Figs. 2 and 3 respectively.

human melanocytes [2] = assay: Melanocyte bioassay: cell number / proliferation of cultured human melanocytes; type: cell-based
Experimental: (§1) Melanocytes were seeded at 2 x 10⁴ cells per 35 mm dish and combined with KPGM supplemented with 2% FBS and 100 ug/ml of BHE, now designated as complete melanocyte medium. After 24 hours incubation at 37 C, the grown melanocyte cultures, in duplicate or triplicate, received one of the following: free complete melanocyte medium; or supplemented whole KDCM. Each melanocyte culture was then incubated for 6-7 days at 37 C. Subsequently, each melanocyte culture was harvested and the cell number per dish empirically determined. Each melanocyte culture was washed with a 0.4 mM EDTA in PBS; treated with 1 ml of a mixture containing 0.13% trypsin and 0.2 mM EDTA; then incubated approximately 10 minutes at 37 C; followed by addition of 1 ml of PBS. Subsequently, a 0.5 ml aliquot of each resulting suspension was diluted to 10 ml total volume using isotonic saline and processed using a particle counter (Model ZM, Colter Science).
(§2) A first experimental series was performed which utilized human melanocytes combined with the preferred DAG, 1-oleoyl-2-acetyl-glycerol, selected for its efficiency of intercalating into melanocyte membranes. Neonatal foreskins obtained within two hours of elective circumcision were the source of human melanocytes. The epidermis was separated from the dermis after overnight incubation in 0.25% trypsin. Melanocytes were established in primary culture according to the procedure of Gilchrest et al. [J. Invest. Dermatol. 83:370-376 (1984)]. The preferred DAG was combined with human melanocytes in complete melanocyte medium and incubated together for a period of 6 days at 37°C.
(§3) A second experimental series was conducted in which the cultured human melanocytes were first pretreated with tetradecanoyl phorbol-13-acetate (hereinafter "TPA") at a concentration of 100 nM. Initially, the human melanocytes were obtained and grown as previously described. Subsequently, the cultured human melanocytes were combined with 100 nM of TPA in melanocyte medium and incubated at 37°C for 24 hours. The DAG was then added and the culture incubated again for 6 days. The melanin content of the cells was then evaluated in accordance with the procedure as previously described herein.

human melanocytes [3] = assay: Dendricity (morphology) of cultured human melanocytes; type: cell-based
Experimental: In certain instances, phase contrast micrographs were taken using an inverted microscope after the cultures were washed once with phosphate buffered saline.
as §2, §3

S91 melanoma cells [4] = assay: Proliferation of S91 melanoma cells in culture; type: cell-based, murine; settings: DMEM with 2% FBS, 37°C, 7 days
Experimental: as §1
(§4) This experimental series was performed to evaluate the effect of a DAG on melanocytes derived from animal sources, rather than humans. In this experimental series, murine S91 melanoma cells were grown and maintained in culture using conventional techniques [Friedmann and Gilchrest, J. Cell. Physiol. 133:88-94 (1987)]. […]

S91 melanoma cells [5] = assay: Melanin content of S91 melanoma cells in culture; type: cell-based, murine; settings: DMEM with 2% FBS, 37°C, 7 days
Experimental: To determine melanin content, the remaining suspension was centrifuged for 5 minutes in a microcentrifuge; the supernatant discarded; and the resulting cell pellet dissolved in 0.1 ml of a 1 M NaOH which was subsequently diluted with 0.4 ml of water. Melanin concentration was calculated by determination of optical density at 475 nanometers; and values extrapolated by comparison with a standard curve of determinations for synthetic melanin, a measurement of melanogenesis which correlates extremely well with ¹⁴C-DOPA incorporation and with tyrosinase activity [Friedmann and Gilchrest, J. Cell. Physiol. 133:88-94 (1987)]. Melanin values were expressed as total melanin per culture; or as melanin content per cell; or as percent of untreated controls.
as §4, with “(1987)]. The grown S91 melanoma cells were then combined with 100 »M of the preferred DAG, 1-oleoyl-2-acetyl-glycerol; or with 100 »M of 3-isobutyl-1-methylxanthine (IBMX). Each chemical agent was combined with the S91 melanoma cells in Dulbecco's […] Eagle's Medium containing 2% FBS at 37°C for 7 days.” for “(1987)].”

[6] = DAG added after pretreatment with 100 nM TPA for 24 hours, then 6 days
[7] = agent alone (DAG 6 days; TPA 100 nM pretreatment)

Compound | melanization / melanin content per human melanocyte (Fig. 3) (human melanocytes [1]; listed as DAG) | melanization / melanin content per human melanocyte (Fig. 3) (human melanocytes [1]; listed as diacylglycerol) | fold induction at 100 µM (human melanocytes [1]; Homo sapiens, 144 h, optimal concentration of 100 »M, 6 days at 37°C in complete melanocyte medium, read-out: increase in cellular melanin content per cell over the untreated control) | melanin content (Figs. 1a and 1b) (human melanocytes [1]; concentration levels 25 - 200 »M, 6 days at 37°C) | melanization (human melanocytes [1]; diacylglycerol alone, second experimental series, 6 days) | melanocyte proliferation or growth (Figs. 1a and 1b) (human melanocytes [2]; 25 - 200 »M, 6 days at 37°C) | human melanocyte proliferation (Fig. 2) (human melanocytes [2]; [6]) | human melanocyte proliferation (Fig. 2) (human melanocytes [2]; [7]) | induction of dendricity (human melanocytes [3]; [6]) | dendricity of human melanocytes (human melanocytes [3]; DAG alone, 6 days at 37°C) | proliferation of S91 melanoma cells (Fig. 4) (S91 melanoma cells [4]; concentrations ranging from 1-200 uM) | melanin production in S91 melanoma cells in comparison to controls (Fig. 5) (S91 melanoma cells [5]; DAG) | proliferation / cellular growth of S91 melanoma cells (Fig. 4) (S91 melanoma cells [4]; 100 »M) | melanin production in S91 melanoma cells (Fig. 5) (S91 melanoma cells [5]; 100 »M) | dendricity (human melanocytes [3]; TPA alone, 100 nM)
CCCCCCCC/C=C\CCCCCCCC(=O)OCC(CO)OC(C)=O (stereo not shown) [1-oleoyl-2-acetyl-glycerol] | major and significant increases in melanin content per human melanocyte as a function of TPA pretreatment in amounts meaningfully greater than that of the chosen DAG analogue alone | equally effective at melanization | 4 | clear dose dependent response to increased melanin content | induced increased melanization | no meaningful effects on melanocyte proliferation or growth | neither the DAG analogue, nor the pretreatment with TPA, nor their combination has any substantial effect | neither the DAG analogue, nor the pretreatment with TPA, nor their combination has any substantial effect | equally effective at melanization and the induction of dendricity | did not increase the dendricity | effectively failed to induce proliferation | consistently failed to induce any substantial increases in melanin production | – | – | –
CC(C)Cn1c(=O)n(C)c(=O)c2[nH]cnc21 [IBMX, 3-isobutyl-1-methylxanthine, reference compound] | – | – | – | – | – | – | – | – | – | – | – | – | failed to produce any cellular growth | caused a major increase in melanin production | –
tetradecanoyl phorbol-13-acetate [TPA, reference compound] | – | – | – | – | – | – | – | neither the DAG analogue, nor the pretreatment with TPA, nor their combination has any substantial effect | – | – | – | – | – | – | induced extreme dendricity
